Test results: PubChem BioAssay AID1919000 (Molecular Pharmacology Branch, DTP, NCI, 2023)
Each block holds one compound with its values, some of them ahead of it.

Test system: 653999-131-R-J2-PDC complex spheroids, growth % test/control
Experiment: Anticancer human tumor 653999-131-R-J2-PDC patient-derived lung adenocarcinoma cell line growth inhibition [AhR]
Settings: for IC50: curve of first compound; for viability, T/C: stronger effect = lower value
Outline: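 Spheroids combined tumor cells with HUVEC endothelial cells and human MSCs as stroma. AhR antagonists were paired with standard or investigational drugs, each dosed in half-log steps down from near clinical Cmax, or from 10 microM where Cmax was unknown.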

[1] = second compound 0.1 µM, first compound 0.0316 µM
[2] = second compound 0.1 µM, first compound 0.1 µM
[3] = second compound 0.1 µM, first compound 0.316 µM
[4] = second compound 0.1 µM, first compound 1 µM
[5] = second compound 0.1 µM, first compound 3.16 µM
[6] = second compound 0.1 µM, first compound 10 µM
[7] = second compound 0.316 µM, first compound 0.0316 µM
[8] = second compound 0.316 µM, first compound 0.1 µM
[9] = second compound 0.316 µM, first compound 0.316 µM
[10] = second compound 0.316 µM, first compound 1 µM
[11] = second compound 0.316 µM, first compound 3.16 µM
[12] = second compound 0.316 µM, first compound 10 µM
[13] = second compound 1 µM, first compound 0.0316 µM
[14] = second compound 1 µM, first compound 0.1 µM
[15] = second compound 1 µM, first compound 0.316 µM
[16] = second compound 1 µM, first compound 1 µM
[17] = second compound 1 µM, first compound 3.16 µM
[18] = second compound 1 µM, first compound 10 µM
[19] = second compound 3.16 µM, first compound 0.0316 µM
[20] = second compound 3.16 µM, first compound 0.1 µM
[21] = second compound 3.16 µM, first compound 0.316 µM
[22] = second compound 3.16 µM, first compound 1 µM
[23] = second compound 3.16 µM, first compound 3.16 µM
[24] = second compound 3.16 µM, first compound 10 µM
[25] = second compound 10 µM, first compound 0.0316 µM
[26] = second compound 10 µM, first compound 0.1 µM
[27] = second compound 10 µM, first compound 0.316 µM
[28] = second compound 10 µM, first compound 1 µM
[29] = second compound 10 µM, first compound 3.16 µM
[30] = second compound 10 µM, first compound 10 µM
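Further: spheroids exposed to agents for seven days.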
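Wherever viability, T/C is given: 100% = DMSO vehicle control viability.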

IC50 (second compound 0.1 µM): < 31.6 nM | IC50 (second compound 0.316 µM): < 31.6 nM | IC50 (second compound 1 µM): < 31.6 nM | IC50 (second compound 3.16 µM): 95.9 nM | IC50 (second compound 10 µM): 129 nM
Compound: COc1cccc2c1C(=O)c1c(O)c3c(c(O)c1C2=O)CC(O)(C(=O)CO)CC3OC1CC(N)C(O)C(C)O1 (centres undefined) + Cc1ccccc1N=Nc1ccc(NC(=O)c2ccnn2C)c(C)c1
viability, T/C [1]: 50.3% | viability, T/C [2]: 44.6% | viability, T/C [3]: 25.8% | viability, T/C [4]: 9.24% | viability, T/C [5]: 5.33% | viability, T/C [6]: 16.6% | viability, T/C [7]: 50.5% | viability, T/C [8]: 40.8% | viability, T/C [9]: 29.3% | viability, T/C [10]: 9.21% | viability, T/C [11]: 4.48% | viability, T/C [12]: 17.2% | viability, T/C [13]: 48.8% | viability, T/C [14]: 44% | viability, T/C [15]: 28.6% | viability, T/C [16]: 10.4% | viability, T/C [17]: 8.05% | viability, T/C [18]: 19.6% | viability, T/C [19]: 55.6% | viability, T/C [20]: 47% | viability, T/C [21]: 32.6% | viability, T/C [22]: 12.3% | viability, T/C [23]: 11.6% | viability, T/C [24]: 19.2% | viability, T/C [25]: 60.5% | viability, T/C [26]: 51% | viability, T/C [27]: 37.2% | viability, T/C [28]: 16.3% | viability, T/C [29]: 8.54% | viability, T/C [30]: 22.5%

IC50 (second compound 0.1 µM): > 300 nM | IC50 (second compound 0.316 µM): > 300 nM | IC50 (second compound 1 µM): > 300 nM | IC50 (second compound 3.16 µM): > 300 nM | IC50 (second compound 10 µM): > 300 nM
Compound: Nc1ncn(C2CC(O)C(CO)S2)c(=O)n1 (centres undefined) + Cc1ccccc1N=Nc1ccc(NC(=O)c2ccnn2C)c(C)c1
viability, T/C (second compound 0.1 µM, first compound 0.000949 µM): 96.4% | viability, T/C (second compound 0.1 µM, first compound 0.003 µM): 98.8% | viability, T/C (second compound 0.1 µM, first compound 0.00949 µM): 98.2% | viability, T/C (second compound 0.1 µM, first compound 0.03 µM): 101% | viability, T/C (second compound 0.1 µM, first compound 0.0949 µM): 95.3% | viability, T/C (second compound 0.1 µM, first compound 0.3 µM): 85.8% | viability, T/C (second compound 0.316 µM, first compound 0.000949 µM): 98.6% | viability, T/C (second compound 0.316 µM, first compound 0.003 µM): 105% | viability, T/C (second compound 0.316 µM, first compound 0.00949 µM): 105% | viability, T/C (second compound 0.316 µM, first compound 0.03 µM): 105% | viability, T/C (second compound 0.316 µM, first compound 0.0949 µM): 92.8% | viability, T/C (second compound 0.316 µM, first compound 0.3 µM): 95.4% | viability, T/C (second compound 1 µM, first compound 0.000949 µM): 107% | viability, T/C (second compound 1 µM, first compound 0.003 µM): 102% | viability, T/C (second compound 1 µM, first compound 0.00949 µM): 109% | viability, T/C (second compound 1 µM, first compound 0.03 µM): 109% | viability, T/C (second compound 1 µM, first compound 0.0949 µM): 88.2% | viability, T/C (second compound 1 µM, first compound 0.3 µM): 88.7% | viability, T/C (second compound 3.16 µM, first compound 0.000949 µM): 102% | viability, T/C (second compound 3.16 µM, first compound 0.003 µM): 100% | viability, T/C (second compound 3.16 µM, first compound 0.00949 µM): 95.1% | viability, T/C (second compound 3.16 µM, first compound 0.03 µM): 94.4% | viability, T/C (second compound 3.16 µM, first compound 0.0949 µM): 95.8% | viability, T/C (second compound 3.16 µM, first compound 0.3 µM): 82% | viability, T/C (second compound 10 µM, first compound 0.000949 µM): 101% | viability, T/C (second compound 10 µM, first compound 0.003 µM): 103% | viability, T/C (second compound 10 µM, first compound 0.00949 µM): 110% | viability, T/C (second compound 10 µM, first compound 0.03 µM): 95.6% | viability, T/C (second compound 10 µM, first compound 0.0949 µM): 107% | viability, T/C (second compound 10 µM, first compound 0.3 µM): 103%

The next lines start with the compound.

Compound: COc1cccc2c1C(=O)c1c(O)c3c(c(O)c1C2=O)CC(O)(C(=O)CO)CC3OC1CC(N)C(O)C(C)O1 (centres undefined) + Cc1cncc(-c2nc(NCCc3c[nH]c4ccccc34)c3ncn(C(C)C)c3n2)c1
IC50 (second compound 0.1 µM): < 31.6 nM | IC50 (second compound 0.316 µM): < 31.6 nM | IC50 (second compound 1 µM): < 31.6 nM | IC50 (second compound 3.16 µM): 112 nM | IC50 (second compound 10 µM): < 31.6 nM | viability, T/C [1]: 50.2% | viability, T/C [2]: 38.3% | viability, T/C [3]: 26.9% | viability, T/C [4]: 7.22% | viability, T/C [5]: 3.85% | viability, T/C [6]: 14% | viability, T/C [7]: 50.4% | viability, T/C [8]: 37.9% | viability, T/C [9]: 27.2% | viability, T/C [10]: 6.87% | viability, T/C [11]: 3.35% | viability, T/C [12]: 12.9% | viability, T/C [13]: 51.4% | viability, T/C [14]: 44.9% | viability, T/C [15]: 27.6% | viability, T/C [16]: 6.09% | viability, T/C [17]: 3.45% | viability, T/C [18]: 15.4% | viability, T/C [19]: 56.1% | viability, T/C [20]: 50% | viability, T/C [21]: 28.9% | viability, T/C [22]: 4.87% | viability, T/C [23]: 4.59% | viability, T/C [24]: 12.2% | viability, T/C [25]: 40% | viability, T/C [26]: 35.5% | viability, T/C [27]: 21.5% | viability, T/C [28]: 2.46% | viability, T/C [29]: 5.69% | viability, T/C [30]: 7.61%

Compound: Cc1cncc(-c2nc(NCCc3c[nH]c4ccccc34)c3ncn(C(C)C)c3n2)c1
viability, T/C (compound 0.1 µM): 92.6% [middle of 20 runs] | viability, T/C (compound 0.316 µM): 97% [middle of 20 runs] | viability, T/C (compound 1 µM): 101% [middle of 20 runs] | viability, T/C (compound 10 µM): 52% [middle of 20 runs]

Compound: O=C(C=Cc1cccc(S(=O)(=O)Nc2ccccc2)c1)NO + CC(CO)NC(=O)c1cc(-c2ccc(Cl)cc2)nn(-c2cnn(C)c2)c1=O
IC50 (second compound 0.1 µM): 3730 nM | IC50 (second compound 0.316 µM): 3660 nM | IC50 (second compound 1 µM): 4130 nM | IC50 (second compound 3.16 µM): 3520 nM | IC50 (second compound 10 µM): 3640 nM | viability, T/C [1]: 102% | viability, T/C [2]: 102% | viability, T/C [3]: 100% | viability, T/C [4]: 91.8% | viability, T/C [5]: 57.3% | viability, T/C [6]: 6.62% | viability, T/C [7]: 109% | viability, T/C [8]: 117% | viability, T/C [9]: 95.9% | viability, T/C [10]: 96.3% | viability, T/C [11]: 55% | viability, T/C [12]: 7.7% | viability, T/C [13]: 108% | viability, T/C [14]: 104% | viability, T/C [15]: 114% | viability, T/C [16]: 98.5% | viability, T/C [17]: 63.4% | viability, T/C [18]: 6.59% | viability, T/C [19]: 107% | viability, T/C [20]: 114% | viability, T/C [21]: 105% | viability, T/C [22]: 90.2% | viability, T/C [23]: 54.3% | viability, T/C [24]: 10.5% | viability, T/C [25]: 107% | viability, T/C [26]: 111% | viability, T/C [27]: 105% | viability, T/C [28]: 100% | viability, T/C [29]: 56.2% | viability, T/C [30]: 4.99%

Compound: Nc1ncn(C2CC(O)C(CO)O2)c(=O)n1 (centres undefined) + Cc1cncc(-c2nc(NCCc3c[nH]c4ccccc34)c3ncn(C(C)C)c3n2)c1
IC50 (second compound 0.1 µM): > 1000 nM | IC50 (second compound 0.316 µM): > 1000 nM | IC50 (second compound 1 µM): > 1000 nM | IC50 (second compound 3.16 µM): > 1000 nM | IC50 (second compound 10 µM): 210 nM | viability, T/C (second compound 0.1 µM, first compound 0.00316 µM): 96.2% | viability, T/C (second compound 0.1 µM, first compound 0.01 µM): 86.1% | viability, T/C [1]: 92.3% | viability, T/C [2]: 86.5% | viability, T/C [3]: 88.2% | viability, T/C [4]: 77.5% | viability, T/C (second compound 0.316 µM, first compound 0.00316 µM): 91.2% | viability, T/C (second compound 0.316 µM, first compound 0.01 µM): 94% | viability, T/C [7]: 90.8% | viability, T/C [8]: 85.1% | viability, T/C [9]: 87.7% | viability, T/C [10]: 83.6% | viability, T/C (second compound 1 µM, first compound 0.00316 µM): 106% | viability, T/C (second compound 1 µM, first compound 0.01 µM): 108% | viability, T/C [13]: 99.2% | viability, T/C [14]: 99.2% | viability, T/C [15]: 94.1% | viability, T/C [16]: 82% | viability, T/C (second compound 3.16 µM, first compound 0.00316 µM): 98.7% | viability, T/C (second compound 3.16 µM, first compound 0.01 µM): 95.2% | viability, T/C [19]: 106% | viability, T/C [20]: 98.3% | viability, T/C [21]: 96.9% | viability, T/C [22]: 90.2% | viability, T/C (second compound 10 µM, first compound 0.00316 µM): 54.6% | viability, T/C (second compound 10 µM, first compound 0.01 µM): 52.4% | viability, T/C [25]: 54% | viability, T/C [26]: 51.9% | viability, T/C [27]: 49.2% | viability, T/C [28]: 47.2%
